Measurements published in patent US20100047332A1, “Treatments for burns using thyroid hormone compound in a human” (priority 2005, published 2010).

How the values were obtained:
excisional wounds = details: cited from earlier work
[1] = tested on: burned and blistered area of the right thigh; assay: Topical T-3 in Silvadene ointment on a burn
dermis and epidermis = details: topical application, not intraperitoneal; cited from earlier work
[2] = tested on: wounds such as lacerations; assay: Lacerations treated with continuous topical T-3 or TriAc; format: in vivo, human; details: continuous topical application, in approximately three days
burns = details: small quantities in drinking water, excision and grafting, after 5 weeks; cited from earlier work
heart wounds = details: 500 ngs continuously, slow release pellet; cited from earlier work
TSH = details: topically applied, humans; cited from earlier work

SMILES | healing of excisional non thermal wounds (excisional wounds; eurythroid mouse, daily) | wound healing (excisional wounds; intraperitoneal, hypothyroid mice) | cellular debris and signs of inflammation ([1]; T-3 1 mg in 30 ml Silvadene ointment, daily for two weeks) | appearance of the treated area ([1]; after 6 weeks) | growth of the dermis and epidermis (dermis and epidermis) | signs of inflammation [2] | healing rate of burns (burns) | healing of heart wounds (heart wounds) | effect on TSH levels or other thyroid hormone function tests (TSH)
N[C@@H](Cc1cc(I)c(Oc2ccc(O)c(I)c2)c(I)c1)C(=O)O [T-3, 3,5,3′-triiodothyronine] | accelerates the healing | improved wound healing | more cellular debris and signs of inflammation | less reddened areas and had less discolored skin | affect the growth of the dermis and epidermis | increased signs of inflammation | no change in the healing rate | decreased healing of heart wounds | –
N[C@@H](Cc1cc(I)c(Oc2cc(I)c(O)c(I)c2)c(I)c1)C(=O)O [T-4, thyroxine] | – | – | – | – | – | – | – | – | no effect on TSH levels
